Values quoted from earlier work as cited in patent US20030060663A1, “Novel therapeutic agents for macromolecular structures” (priority 1998, published 2003).
Read-outs that look alike come from different tables or passages of the source.

Assays:
[1] = animal models
[2] = clinical trials
coxsackievirus A21 = settings: p.o. administration, patients challenged with coxsackievirus A21
[3] = tested on: HRV (human rhinovirus)-16, 39, and 50; settings: administered orally to patients infected with HRV-16, 39, and 50
[4] = tested on: Microsporum, Epidermophyton and Trichophyton; settings: various species of Microsporum
fungal pathogens = settings: on average; for MIC values, fold higher than amphotericin B: range of fungal pathogens
HRV-9 = settings: against HRV-9
mitotic microtubules = settings: intact tectal plates from mouse embryos; blockade of cells at metaphase
axonal microtubules = settings: intact tectal plates from mouse embryos
yeasts = settings: relative to amphotericin B

Compound: COC(=O)[C@H]1[C@@H]2C[C@@H](O[C@@H]3O[C@H](C)[C@@H](O)[C@H](N)[C@@H]3O)/C=C/C=C/C=C/C=C/C=C/C=C/C=C/[C@H](C)[C@@H](O)[C@@H](C)[C@H](C)OC(=O)C[C@H](O)C[C@H](O)CC[C@@H](O)[C@H](O)C[C@H](O)C[C@](O)(C[C@@H]1O)O2 [Amphotericin B methyl ester]
- nephrotoxicity compared with amphotericin B [1]: less nephrotoxic
- nephrotoxicity compared with amphotericin B [2]: less nephrotoxic

Compound: Cc1cc(CCCCCOc2c(Cl)cc(C3N=CCO3)cc2Cl)on1 (centres unmarked) [Compound A]
- prophylactic effect in clinical trials (coxsackievirus A21): prophylactic effect
- therapeutic effect [3]: did not demonstrate a therapeutic effect

Compound: COC1=CC(=O)C[C@@H](C)[C@]12Oc1c(Cl)c(OC)cc(OC)c1C2=O [Griseofulvin]
- in vitro activity against fungi [4]: fungistatic

Compound: COC(=O)C1C(O)CC2(O)CC(O)CC(O)C(O)CCC(O)CC(O)CC(=O)OC(C)C(C)C(O)C(C)C=CC=CC=CC=CC=CC=CC=CC(OC3OC(C)C(O)C(NC(=O)C(N)CCCN)C3O)CC1O2 (centres unmarked) [N-ornithyl amphotericin B methyl ester]
- nephrotoxicity compared with amphotericin B [1]: less nephrotoxic

Compound: CC1C=CC=CC=CC=CC=CC=CC=CC(OC2OC(C)C(O)C(N)C2O)CC2OC(OCCO)(CC(O)CC(O)C(O)CCC(O)CC(O)CC(=O)OC(C)C(C)C1O)CC(O)C2C(=O)O (stereo not drawn) [beta-hydroxyethoxy ketal]
- MIC values, fold higher than amphotericin B (fungal pathogens): 2 fold

Compound: COc1ccc(N2CCN(c3cccc(C)c3)CC2)nn1 [compound C]
- prophylactic use (HRV-9): worked prophylactically

Compound: COC12CC(O)CC(O)C(O)CCC(O)CC(O)CC(=O)OC(C)C(C)C(O)C(C)C=CC=CC=CC=CC=CC=CC=CC(OC3OC(C)C(O)C(N)C3O)CC(O1)C(C(=O)O)C(O)C2 (centres unmarked) [methoxy ketal]
- MIC values, fold higher than amphotericin B (fungal pathogens): 2 fold

Compound: CCCOC12CC(O)CC(O)C(O)CCC(O)CC(O)CC(=O)OC(C)C(C)C(O)C(C)C=CC=CC=CC=CC=CC=CC=CC(OC3OC(C)C(O)C(N)C3O)CC(O1)C(C(=O)O)C(O)C2 (centres unmarked) [n-propyloxy ketal]
- fold less potent in vitro (fungal pathogens): 10 fold

Compound: CC[C@]1(O)C[C@@H]2CN(CCc3c([nH]c4ccccc34)[C@@](C(=O)OC)(c3cc4c(cc3OC)N(C)[C@H]3[C@@](O)(C(=O)OC)[C@H](OC(C)=O)[C@]5(CC)C=CCN6CC[C@]43[C@@H]65)C2)C1 [vinblastine]
- concentration at which mitotic microtubule formation is inhibited (mitotic microtubules): 2 mcM
- concentration producing depolymerization of axonal microtubules (axonal microtubules): 30 mcM

Compound: CC[C@]1(O)C[C@H]2CN(CCc3c([nH]c4ccccc34)[C@@](C(=O)OC)(c3cc4c(cc3OC)N(C=O)[C@H]3[C@@](O)(C(=O)OC)[C@H](OC(C)=O)[C@]5(CC)C=CCN6CC[C@]43[C@@H]65)C2)C1 [vincristine, Vincristine]
- concentration at which mitotic microtubule formation is inhibited (mitotic microtubules): 2 mcM
- concentration producing depolymerization of axonal microtubules (axonal microtubules): 5 mcM

Compound: CCC1=C[C@@H]2CN(C1)Cc1c([nH]c3ccccc13)[C@@](C(=O)OC)(c1cc3c(cc1OC)N(C)[C@H]1[C@@](O)(C(=O)OC)[C@H](OC(C)=O)[C@]4(CC)C=CCN5CC[C@]31[C@@H]54)C2 [vinorelbine, 3′,4′-Didehydro-4′-deoxy-C′-norvincaleukoblastine]
- concentration at which mitotic microtubule formation is inhibited (mitotic microtubules): 2 mcM
- concentration producing depolymerization of axonal microtubules (axonal microtubules): 40 mcM

Compound: monovalent adduct of amphotericin B with N,N′-1,6-hexandiyl-bis(maleimide)
- MIC values against yeasts, fold higher than amphotericin B (yeasts): more than 20 fold
